Data reported in the NIST ThermoML archive (doi:10.1016/j.jct.2010.04.013).

Assay: mn = molality of the nth substance listed, in mol/kg
Details: 101 kPa, Liquid; for mass density: Vibrating tube method; for speed of sound: Pulse-echo method

[Mg+2].[O-][Cl+3]([O-])([O-])[O-].[O-][Cl+3]([O-])([O-])[O-] [magnesium perchlorate] + C[S+](C)[O-]
Details	mass density, 293.15 K [kg/m3]	mass density, 298.15 K [kg/m3]	mass density, 303.15 K [kg/m3]	mass density, 313.15 K [kg/m3]	mass density, 323.15 K [kg/m3]	mass density, 333.15 K [kg/m3]	speed of sound, 298.15 K [m/s]
m1 = 0.02171	1103.82	1098.81	1093.8	1083.79	1073.79	1063.78	–
m1 = 0.03119	1105.4	1100.4	1095.39	1085.4	1075.41	1065.42	1486.8
m1 = 0.04163	1107.14	1102.15	1097.16	1087.18	1077.2	1067.23	1487.7
m1 = 0.05295	1109.04	1104.04	1099.06	1089.1	1079.15	1069.19	1488.7
m1 = 0.06473	1111.01	1106.03	1101.06	1091.11	1081.18	1071.25	1489.7
m1 = 0.08226	1113.97	1109	1104.04	1094.12	1084.21	1074.31	1491.1
m1 = 0.1041	1117.67	1112.71	1107.76	1097.88	1088	1078.12	1493
m1 = 0.1277	1121.69	1116.74	1111.81	1101.96	1092.12	1082.29	1494.8
m1 = 0.1481	1125.19	1120.27	1115.34	1105.52	1095.7	1085.9	1496.7
m1 = 0.1734	1129.53	1124.62	1119.72	1109.94	1100.17	1090.39	1498.8
m1 = 0.1952	1133.31	1128.4	1123.52	1113.77	1104.03	1094.3	1500.8

CO [methanol] + O=S(=O)([O-])C(F)(F)F.O=S(=O)([O-])C(F)(F)F.[Be+2]
m2 = 0
Details	mass density [kg/m3]
283.15 K	800.552
288.15 K	795.874
293.15 K	791.179
298.15 K	786.469
303.15 K	781.742
308.15 K	776.993
313.15 K	772.216
